Reference: the supplement of paper PMC10307832

Tests used:
Test in all cases: relative viability (nuclei count vs DMSO), 5 days (fraction); higher = more cells survive
[1] = tested on: PC-14
Outline: (§1)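 Five library-drug doses in √10 steps were combined with a fixed anchor-drug dose, or a single drug was given alone, by pin tool to lung cancer cell lines in 1536-well plates the day after seeding. Nuclei were stained and counted after 5 days. Relative viability is the nuclei count in treated wells over that in vehicle wells, taken as the median of duplicate plates.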

[2] = tested on: HARA
Outline: as §1

[3] = tested on: LU99A
Outline: as §1

[4] = tested on: HOP-62
Outline: as §1

[5] = tested on: NCI-H2087
Outline: as §1

[6] = tested on: LCLC-97TM1
Outline: as §1

[7] = tested on: CAL-12T
Outline: as §1

[8] = tested on: HCC-366
Outline: as §1

[9] = tested on: HCC-827
Outline: as §1

[10] = tested on: LC-2-ad
Outline: as §1

[11] = tested on: COR-L23
Outline: as §1

[12] = tested on: BEN
Outline: as §1

[13] = tested on: HCC-15
Outline: as §1

[14] = tested on: HCC-44
Outline: as §1

[15] = tested on: NCI-H727
Outline: as §1

[16] = tested on: NCI-H2170
Outline: as §1

[17] = tested on: NCI-H2126
Outline: as §1

[18] = tested on: NCI-H2009
Outline: as §1

[19] = tested on: COR-L 105
Outline: as §1

[20] = tested on: NCI-H1993
Outline: as §1

[21] = tested on: LXF-289
Outline: as §1

[22] = tested on: PC-3 [JPC-3]
Outline: as §1

[23] = tested on: SK-MES-1
Outline: as §1

## CCCCCCCCCCCC1=C(O)C(=O)C=C(O)C1=O [Embelin] + CC1(C)CCC(c2ccc(Cl)cc2)=C(CN2CCN(c3ccc(C(=O)NS(=O)(=O)c4ccc(N[C@H](CCN5CCOCC5)CSc5ccccc5)c(S(=O)(=O)C(F)(F)F)c4)cc3)CC2)C1 [Navitoclax] (partner 0.5 µM)
[1]; first compound 0.08 µM
  relative viability: 0.968
[1]; first compound 0.8 µM
  relative viability: 1.05
[1]; first compound 2.53 µM
  relative viability: 0.997
[1]; first compound 8 µM
  relative viability: 1.06
[2]; first compound 0.08 µM
  relative viability: 1.12
[2]; first compound 0.8 µM
  relative viability: 1.2
[2]; first compound 2.53 µM
  relative viability: 1.12
[2]; first compound 8 µM
  relative viability: 1.13
[3]; first compound 0.08 µM
  relative viability: 0.993
[3]; first compound 0.8 µM
  relative viability: 0.943
[3]; first compound 2.53 µM
  relative viability: 0.864
[3]; first compound 8 µM
  relative viability: 0.755
[4]; first compound 0.08 µM
  relative viability: 0.882
[4]; first compound 0.8 µM
  relative viability: 1.16
[4]; first compound 2.53 µM
  relative viability: 1.09
[4]; first compound 8 µM
  relative viability: 1.22
[5]; first compound 0.08 µM
  relative viability: 0.892
[5]; first compound 0.8 µM
  relative viability: 1.17
[5]; first compound 2.53 µM
  relative viability: 0.93
[5]; first compound 8 µM
  relative viability: 0.989
[6]; first compound 0.8 µM
  relative viability: 0.46
[6]; first compound 2.53 µM
  relative viability: 0.499
[6]; first compound 8 µM
  relative viability: 0.399
[7]; first compound 0.08 µM
  relative viability: 1.12
[7]; first compound 0.8 µM
  relative viability: 1.41
[7]; first compound 2.53 µM
  relative viability: 1.23
[7]; first compound 8 µM
  relative viability: 1.24
[8]; first compound 0.08 µM
  relative viability: 0.953
[8]; first compound 0.8 µM
  relative viability: 1.16
[8]; first compound 2.53 µM
  relative viability: 1.13
[8]; first compound 8 µM
  relative viability: 1.11
[9]; first compound 0.08 µM
  relative viability: 1
[9]; first compound 0.8 µM
  relative viability: 1.09
[9]; first compound 2.53 µM
  relative viability: 1.03
[9]; first compound 8 µM
  relative viability: 1.04
[10]; first compound 0.08 µM
  relative viability: 0.406
[10]; first compound 0.8 µM
  relative viability: 0.625
[10]; first compound 2.53 µM
  relative viability: 0.451
[10]; first compound 8 µM
  relative viability: 0.51
[11]; first compound 0.08 µM
  relative viability: 0.991
[11]; first compound 0.8 µM
  relative viability: 1.32
[11]; first compound 2.53 µM
  relative viability: 1.19
[11]; first compound 8 µM
  relative viability: 1.22
[12]; first compound 0.08 µM
  relative viability: 0.0728
[12]; first compound 0.8 µM
  relative viability: 0.0709
[12]; first compound 2.53 µM
  relative viability: 0.0714
[12]; first compound 8 µM
  relative viability: 0.0735
[13]; first compound 0.08 µM
  relative viability: 0.659
[13]; first compound 0.8 µM
  relative viability: 0.773
[13]; first compound 2.53 µM
  relative viability: 0.718
[13]; first compound 8 µM
  relative viability: 0.693
[14]; first compound 0.08 µM
  relative viability: 0.903
[14]; first compound 0.8 µM
  relative viability: 0.911
[14]; first compound 2.53 µM
  relative viability: 1.07
[14]; first compound 8 µM
  relative viability: 0.923
[15]; first compound 0.08 µM
  relative viability: 0.4
[15]; first compound 0.8 µM
  relative viability: 0.537
[15]; first compound 2.53 µM
  relative viability: 0.435
[15]; first compound 8 µM
  relative viability: 0.392
[16]; first compound 0.08 µM
  relative viability: 0.641
[16]; first compound 0.8 µM
  relative viability: 0.678
[16]; first compound 2.53 µM
  relative viability: 0.698
[16]; first compound 8 µM
  relative viability: 0.547
[17]; first compound 0.08 µM
  relative viability: 0.879
[17]; first compound 0.8 µM
  relative viability: 0.801
[17]; first compound 2.53 µM
  relative viability: 0.848
[17]; first compound 8 µM
  relative viability: 0.869
[18]; first compound 0.08 µM
  relative viability: 1.23
[18]; first compound 0.8 µM
  relative viability: 1.24
[18]; first compound 2.53 µM
  relative viability: 1.23
[18]; first compound 8 µM
  relative viability: 1.08
[19]; first compound 0.08 µM
  relative viability: 0.758
[19]; first compound 0.8 µM
  relative viability: 1.04
[19]; first compound 2.53 µM
  relative viability: 0.748
[19]; first compound 8 µM
  relative viability: 0.795
[20]; first compound 0.08 µM
  relative viability: 0.958
[20]; first compound 0.8 µM
  relative viability: 0.84
[20]; first compound 2.53 µM
  relative viability: 0.916
[20]; first compound 8 µM
  relative viability: 0.893
[21]; first compound 0.08 µM
  relative viability: 1.01
[21]; first compound 0.8 µM
  relative viability: 0.959
[21]; first compound 2.53 µM
  relative viability: 1.03
[21]; first compound 8 µM
  relative viability: 0.953
[22]; first compound 0.08 µM
  relative viability: 0.82
[22]; first compound 0.8 µM
  relative viability: 0.752
[22]; first compound 2.53 µM
  relative viability: 0.941
[22]; first compound 8 µM
  relative viability: 0.72
[23]; first compound 0.08 µM
  relative viability: 1.23
[23]; first compound 0.8 µM
  relative viability: 1.32
[23]; first compound 2.53 µM
  relative viability: 1.25
[23]; first compound 8 µM
  relative viability: 1.43
